Tested on: mouse cortical cultures
Assay: RNA-seq differential expression (DESeq) against matched vehicle
Assay type: cell-based
Parameters: key to MeanFenamidone Bcl11b / MeanFenamidone Slc12a4 / MeanFenamidone Abca1 / MeanFenamidone Hmox1 / MeanFenamidone Il1rap / MeanFenamidone Cyba / MeanFenamidone Narf / MeanFenamidone Bnip3 / MeanFenamidone Amotl2 / MeanFenamidone Gad2 / MeanFenamidone Vsnl1 / MeanFenamidone Fam178a: DESeq mean of counts over RefSeq exons
Description: Figure 4 Cluster 2 chemicals alter expression of a common set of genes. […] RNA-seq was performed in quadruplicate after treating cortical cultures with fenamidone (10 μM) or pyraclostrobin (0.1 μM) for 24 h (n=3 biological replicates) and compared with matched vehicle controls using DESeq to detect differentially expressed genes, listed in Supplementary Data 4.
Cultures were treated with the non-cytotoxic dose of each chemical, by exchanging half of the original medium with chemicals at 2 × concentration in prewarmed feeding medium, on DIV 7 for 24 h in 12-well plates at a density of 5 × 10^5 cells per well. RNA was isolated using RNeasy plus mini kit (Cat. #74134, Qiagen). […]. Samples were further assessed for quality using either an Agilent Bioanalyzer 2100 or TapeStation 2200 to obtain a RIN. RIN values exceeding 7 were used for sequencing. RNA samples were used to generate and barcode complementary DNA libraries using the TruSeq RNA Library Preparation Kit at the UNC High Throughput Sequencing Facility. Pools of 24 multiplexed samples were sequenced per lane on an Illumina HiSeq 2500 using 50-bp paired-end reads.
RNA-seq reads were filtered using TagDust and aligned to the reference mouse genome (mm9) with TopHat using default parameters. Reads aligning to ribosomal RNA genes were removed. Transcript abundance was estimated by computing Reads per kilobase per million mapped reads (RPKM) using RefSeq gene models aggregated by gene symbol. For differential expression analyses, raw counts over RefSeq exons were used, and then were compared across samples using DESeq[62].

## CSC1=N[C@@](C)(c2ccccc2)C(=O)N1Nc1ccccc1 [fenamidone]
Fenamidone 10 μM or pyraclostrobin 0.1 μM, 24 h
  Differentially expressed genes (DESeq) compared between the two fungicides: up- and downregulate a largely overlapping set of genes
Gene 2810011L19Rik, Fenamidone, 4 reps, vs matched vehicle
  MeanFenamidone (DESeq mean normalized counts): 45.3905
Gene 3632451O06Rik
  MeanFenamidone: 64.8489
  log2FoldChange: -1.594
Gene 4931428F04Rik
  MeanFenamidone: 315.322
  log2FoldChange: -1.331
Gene 4933426M11Rik
  MeanFenamidone: 495.966
  log2FoldChange: 1.2253
Gene 9930013L23Rik, DESeq mean, 4 reps
  MeanFenamidone 9930013L23Rik: 645.322
Gene 9930013L23Rik, vs vehicle, 4 reps
  log2FoldChange 9930013L23Rik: 2.2987
Gene AF357359, DESeq mean, 4 reps
  MeanFenamidone AF357359: 31.2414
Gene AF357359, vs vehicle, 4 reps
  log2FoldChange AF357359: -2.02
Gene Abca1, DESeq mean, 4 reps
  MeanFenamidone Abca1: 1327.24
Gene Abca1, vs vehicle, 4 reps
  log2FoldChange Abca1: 1.708
Gene Acadl, DESeq mean, 4 reps
  MeanFenamidone Acadl: 174.046
Gene Acadl, vs vehicle, 4 reps
  log2FoldChange Acadl: 2.185
Gene Acadvl, DESeq mean, 4 reps
  MeanFenamidone Acadvl: 272.079
Gene Acadvl, vs vehicle, 4 reps
  log2FoldChange Acadvl: 1.576
Gene Acsbg1, DESeq mean, 4 reps
  MeanFenamidone Acsbg1: 241.134
Gene Acsbg1, vs vehicle, 4 reps
  log2FoldChange Acsbg1: 1.737
Gene Acta2, DESeq mean, 4 reps
  MeanFenamidone Acta2: 2838.59
Gene Acta2, vs vehicle, 4 reps
  log2FoldChange Acta2: 3.4285
Gene Actn1, DESeq mean, 4 reps
  MeanFenamidone Actn1: 711.955
Gene Actn1, vs vehicle, 4 reps
  log2FoldChange Actn1: 2.284
Gene Adamts5, DESeq mean, 4 reps
  MeanFenamidone Adamts5: 85.7871
Gene Adamts5, vs vehicle, 4 reps
  log2FoldChange Adamts5: 2.142
Gene Adarb2, DESeq mean, 4 reps
  MeanFenamidone Adarb2: 8.295
Gene Adarb2, vs vehicle, 4 reps
  log2FoldChange Adarb2: -3.192
Gene Agap2, DESeq mean, 4 reps
  MeanFenamidone Agap2: 683.65
Gene Agap2, vs vehicle, 4 reps
  log2FoldChange Agap2: -1.416
Gene Ahnak, DESeq mean, 4 reps
  MeanFenamidone Ahnak: 1224
Gene Ahnak, vs vehicle, 4 reps
  log2FoldChange Ahnak: 2.684
Gene Ajuba, DESeq mean, 4 reps
  MeanFenamidone Ajuba: 246.575
Gene Ajuba, vs vehicle, 4 reps
  log2FoldChange Ajuba: 2.23
Gene Akap2
  MeanFenamidone: 757.95
  log2FoldChange: 1.126
Gene Aldh4a1, DESeq mean, 4 reps
  MeanFenamidone Aldh4a1: 305.431
Gene Aldh4a1, vs vehicle, 4 reps
  log2FoldChange Aldh4a1: 1.584
Gene Amotl1, DESeq mean, 4 reps
  MeanFenamidone Amotl1: 463.485
Gene Amotl1, vs vehicle, 4 reps
  log2FoldChange Amotl1: 1.802
Gene Amotl2, DESeq mean, 4 reps
  MeanFenamidone Amotl2: 666.038
Gene Amotl2, vs vehicle, 4 reps
  log2FoldChange Amotl2: 1.759
Gene Anxa2
  MeanFenamidone: 244.58
  log2FoldChange: 2.151
Gene Anxa3, DESeq mean, 4 reps
  MeanFenamidone Anxa3: 244.534
Gene Anxa3, vs vehicle, 4 reps
  log2FoldChange Anxa3: 3.475
Gene Arhgap18, DESeq mean, 4 reps
  MeanFenamidone Arhgap18: 128.165
Gene Arhgap18, vs vehicle, 4 reps
  log2FoldChange Arhgap18: 1.989
Gene Arhgdig
  MeanFenamidone: 118.591
  log2FoldChange: -1.355
Gene Arhgef40
  MeanFenamidone: 160.321
  log2FoldChange: 1.457
Gene Asah1, DESeq mean, 4 reps
  MeanFenamidone Asah1: 348.017
Gene Asah1, vs vehicle, 4 reps
  log2FoldChange Asah1: 1.772
Gene Ass1, DESeq mean, 4 reps
  MeanFenamidone Ass1: 83.2354
Gene Ass1, vs vehicle, 4 reps
  log2FoldChange Ass1: 3.013
Gene Atf3, DESeq mean, 4 reps
  MeanFenamidone Atf3: 64.246
Gene Atf3, vs vehicle, 4 reps
  log2FoldChange Atf3: 2.3746
Gene Atf5, DESeq mean, 4 reps
  MeanFenamidone Atf5: 765.032
Gene Atf5, vs vehicle, 4 reps
  log2FoldChange Atf5: 1.876
Gene Atl1, DESeq mean, 4 reps
  MeanFenamidone Atl1: 97.9838
Gene Atl1, vs vehicle, 4 reps
  log2FoldChange Atl1: -1.537
Gene Axl, DESeq mean, 4 reps
  MeanFenamidone Axl: 322.064
Gene Axl, vs vehicle, 4 reps
  log2FoldChange Axl: 2.208
Gene Bak1
  MeanFenamidone: 236.594
  log2FoldChange: 1.306
Gene Bcl11b, DESeq mean, 4 reps
  MeanFenamidone Bcl11b: 202.325
Gene Bcl11b, vs vehicle, 4 reps
  log2FoldChange Bcl11b: -1.501
Gene Bhlhe41, DESeq mean, 4 reps
  MeanFenamidone Bhlhe41: 115.206
Gene Bhlhe41, vs vehicle, 4 reps
  log2FoldChange Bhlhe41: 2.168
Gene Bmp1
  MeanFenamidone: 153.886
  log2FoldChange: 1.3853
Gene Bnip3, DESeq mean, 4 reps
  MeanFenamidone Bnip3: 102.453
Gene Bnip3, vs vehicle, 4 reps
  log2FoldChange Bnip3: -1.924
Gene Bnip3l
  MeanFenamidone: 236.54
  log2FoldChange: -1.119
Gene Bsn
  MeanFenamidone: 443.744
  log2FoldChange: -1.148
Gene Cad
  MeanFenamidone: 202.997
  log2FoldChange: 1.187
Gene Cadps
  MeanFenamidone: 260.197
  log2FoldChange: -1.6246
Gene Cald1, DESeq mean, 4 reps
  MeanFenamidone Cald1: 1843.23
Gene Cald1, vs vehicle, 4 reps
  log2FoldChange Cald1: 1.947
Gene Calm2
  MeanFenamidone: 809.868
  log2FoldChange: -1.097
Gene Camk2a, DESeq mean, 4 reps
  MeanFenamidone Camk2a: 319.844
Gene Camk2a, vs vehicle, 4 reps
  log2FoldChange Camk2a: -1.451
Gene Camk2n1
  MeanFenamidone: 296.66
  log2FoldChange: -1.023
Gene Camk4, DESeq mean, 4 reps
  MeanFenamidone Camk4: 490.278
Gene Camk4, vs vehicle, 4 reps
  log2FoldChange Camk4: -1.593
Gene Camta1, DESeq mean, 4 reps
  MeanFenamidone Camta1: 338.624
Gene Camta1, vs vehicle, 4 reps
  log2FoldChange Camta1: -1.578
Gene Caskin2, DESeq mean, 4 reps
  MeanFenamidone Caskin2: 130.097
Gene Caskin2, vs vehicle, 4 reps
  log2FoldChange Caskin2: 2.297
Gene Ccdc141, DESeq mean, 4 reps
  MeanFenamidone Ccdc141: 72.7622
Gene Ccdc141, vs vehicle, 4 reps
  log2FoldChange Ccdc141: 2.666
Gene Ccnd3, DESeq mean, 4 reps
  MeanFenamidone Ccnd3: 321.074
Gene Ccnd3, vs vehicle, 4 reps
  log2FoldChange Ccnd3: 1.783
Gene Ccng1, DESeq mean, 4 reps
  MeanFenamidone Ccng1: 4010.45
Gene Ccng1, vs vehicle, 4 reps
  log2FoldChange Ccng1: 1.5262
Gene Cd63, DESeq mean, 4 reps
  MeanFenamidone Cd63: 136.407
Gene Cd63, vs vehicle, 4 reps
  log2FoldChange Cd63: 2.342
Gene Cd68, DESeq mean, 4 reps
  MeanFenamidone Cd68: 127.152
Gene Cd68, vs vehicle, 4 reps
  log2FoldChange Cd68: 2.839
Gene Cd151, DESeq mean, 4 reps
  MeanFenamidone Cd151: 686.042
Gene Cd151, vs vehicle, 4 reps
  log2FoldChange Cd151: 1.998
Gene Cdc42ep1, DESeq mean, 4 reps
  MeanFenamidone Cdc42ep1: 242.014
Gene Cdc42ep1, vs vehicle, 4 reps
  log2FoldChange Cdc42ep1: 2.019
Gene Cdkl2, DESeq mean, 4 reps
  MeanFenamidone Cdkl2: 148.718
Gene Cdkl2, vs vehicle, 4 reps
  log2FoldChange Cdkl2: -1.498
Gene Cdkn1a, DESeq mean, 4 reps
  MeanFenamidone Cdkn1a: 1626.53
Gene Cdkn1a, vs vehicle, 4 reps
  log2FoldChange Cdkn1a: 1.6849
Gene Cercam
  MeanFenamidone: 80.354
  log2FoldChange: 1.731
Gene Chga
  MeanFenamidone: 168.446
  log2FoldChange: -1.21
Gene Chl1
  MeanFenamidone: 1683.83
  log2FoldChange: -1.224
Gene Ckb
  MeanFenamidone: 1311.75
  log2FoldChange: 1.6
Gene Clec7a
  MeanFenamidone: 31.0423
  log2FoldChange: 2.927
Gene Cln5, DESeq mean, 4 reps
  MeanFenamidone Cln5: 194.081
Gene Cln5, vs vehicle, 4 reps
  log2FoldChange Cln5: 2.017
Gene Cnr1, DESeq mean, 4 reps
  MeanFenamidone Cnr1: 426.988
Gene Cnr1, vs vehicle, 4 reps
  log2FoldChange Cnr1: -1.344
Gene Col4a5, DESeq mean, 4 reps
  MeanFenamidone Col4a5: 502.413
Gene Col4a5, vs vehicle, 4 reps
  log2FoldChange Col4a5: 2.312
Gene Col4a6
  MeanFenamidone: 110.458
  log2FoldChange: 2.156
Gene Col12a1, DESeq mean, 4 reps
  MeanFenamidone Col12a1: 444.559
Gene Col12a1, vs vehicle, 4 reps
  log2FoldChange Col12a1: 2.385
Gene Cpeb1, DESeq mean, 4 reps
  MeanFenamidone Cpeb1: 116.043
Gene Cpeb1, vs vehicle, 4 reps
  log2FoldChange Cpeb1: 2.171
Gene Csf1, DESeq mean, 4 reps
  MeanFenamidone Csf1: 1349.7
Gene Csf1, vs vehicle, 4 reps
  log2FoldChange Csf1: 2.395
Gene Csrnp3, DESeq mean, 4 reps
  MeanFenamidone Csrnp3: 419.96
Gene Csrnp3, vs vehicle, 4 reps
  log2FoldChange Csrnp3: -1.31
Gene Ctnna1, DESeq mean, 4 reps
  MeanFenamidone Ctnna1: 850.825
Gene Ctnna1, vs vehicle, 4 reps
  log2FoldChange Ctnna1: 1.929
Gene Ctsd, DESeq mean, 4 reps
  MeanFenamidone Ctsd: 3727.98
Gene Ctsd, vs vehicle, 4 reps
  log2FoldChange Ctsd: 1.609
Gene Ctsl, DESeq mean, 4 reps
  MeanFenamidone Ctsl: 1179.87
Gene Ctsl, vs vehicle, 4 reps
  log2FoldChange Ctsl: 1.543
Gene Cyba, DESeq mean, 4 reps
  MeanFenamidone Cyba: 37.6864
Gene Cyba, vs vehicle, 4 reps
  log2FoldChange Cyba: 3.26
Gene Cyr61, DESeq mean, 4 reps
  MeanFenamidone Cyr61: 1421.12
Gene Cyr61, vs vehicle, 4 reps
  log2FoldChange Cyr61: 2.66
Gene D130043K22Rik, DESeq mean, 4 reps
  MeanFenamidone D130043K22Rik: 33.8314
Gene D130043K22Rik, vs vehicle, 4 reps
  log2FoldChange D130043K22Rik: -1.82
Gene Daam2, DESeq mean, 4 reps
  MeanFenamidone Daam2: 263.262
Gene Daam2, vs vehicle, 4 reps
  log2FoldChange Daam2: 1.9757
Gene Darc
  MeanFenamidone: 104.469
  log2FoldChange: -1.472

From article PMC4821887, “Identification of chemicals that mimic transcriptional changes associated with autism, brain aging and neurodegeneration” (Nature Communications, 2016)
